Experiments:
mouse splenocytes = assay: Inhibition of B Cell Activation as Measured by CD69 Expression in Mouse Splenocytes; type: cell-based; conditions: Splenocyte; C57/BL6 splenocytes, 3 ug/mL goat anti-mouse IgM, 18-20 hrs, CD69+ve cells within CD19; read-out: Mouse spleenocyte IC50
Method: Inhibition of B Cell Activation as Measured by CD69 Expression in Mouse Splenocytes:
To test the effect of BTK inhibitors in suppressing B-cell receptor (BCR) mediated activation of B cells, we developed a flow cytometry based assay to analyze CD69 expression in B cell population among total splenocyte from the mouse. […] Finally, cell were cultured in RPMI medium with 10% FBS.
Test compounds were diluted half log starting from 2 mM in 100% DMSO (200×). 1×10^5 splenocytes were incubated with 1 uL of diluted test compounds in 200 uL culture medium in a U-bottom 96 well plate (Greiner) at 37° C. with 5% CO2 for 30 mins. Control wells received 1 uL of 100% DMSO without any compound. The cells were stimulated with 3 ug/mL goat anti-mouse IgM (Sigma, cat#M8644) and incubated for 18-20 hrs. […] Then the cells were washed 3 times with PBS with 1% FBS and analyzed by Guava Easycyte Mini flow cytometer system (Millipore). Flow cytometry data were analyzed using Weasel software (WEHI, Melbourne). First B cells were gated using CD19 markers. Then expression of CD69 was analyzed as percentage of CD69+ve cells within CD19. Percent activity for each data point was calculated using following formula: […]
Percentage activity was fit using sigmoid dose response with variable slope logistic equation in Graph-pad Prism 5 software to determine inhibition constant 50 (IC50).

[1] = target: human Bruton's Tyrosine Kinase (Btk) (Homo sapiens (Human), UniProt Q06187); assay: Recombinant Human Bruton's Tyrosine Kinase (Btk) Inhibition Assay (HTRF KinEASE-TK); type: biochemical; conditions: 20 ng/ml rhBtk, 77 μM ATP (KM), 1 μM TK-Biotin substrate, 90 min; read-out: hBTK IC50
human Bruton's Tyrosine Kinase (Btk), sequence (Q06187 whole entry): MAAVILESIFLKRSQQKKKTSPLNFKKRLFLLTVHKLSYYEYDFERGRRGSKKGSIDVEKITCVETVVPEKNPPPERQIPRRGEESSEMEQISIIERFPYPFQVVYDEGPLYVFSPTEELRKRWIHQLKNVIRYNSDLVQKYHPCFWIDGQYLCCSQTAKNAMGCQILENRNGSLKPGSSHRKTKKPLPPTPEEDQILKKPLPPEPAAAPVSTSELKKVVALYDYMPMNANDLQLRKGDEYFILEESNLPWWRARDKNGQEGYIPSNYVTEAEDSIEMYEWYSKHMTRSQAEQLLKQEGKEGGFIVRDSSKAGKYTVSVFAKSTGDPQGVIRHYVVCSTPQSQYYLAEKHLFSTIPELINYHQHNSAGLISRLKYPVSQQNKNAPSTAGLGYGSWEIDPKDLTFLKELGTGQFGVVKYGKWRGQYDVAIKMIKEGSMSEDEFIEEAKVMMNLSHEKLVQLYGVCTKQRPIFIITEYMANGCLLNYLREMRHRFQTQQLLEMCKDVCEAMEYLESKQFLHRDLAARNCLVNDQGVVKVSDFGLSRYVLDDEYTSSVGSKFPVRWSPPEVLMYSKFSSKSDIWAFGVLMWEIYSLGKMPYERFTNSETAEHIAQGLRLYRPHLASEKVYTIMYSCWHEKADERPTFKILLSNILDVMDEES

Row | Compound | IC50 (mouse splenocytes) [nM] | IC50 [1] [nM]
1 | Cc1c(-c2ncnc3[nH]c(-c4ccc(N5CCN(C)CC5)cc4)cc23)cccc1N1CCOc2cc(C3CC3)ccc2C1=O [Example C-3, 8-cyclopropyl-4-[2-methyl-3-[6-[4-(4-methylpiperazin-1-yl)phenyl]-7H-pyrrolo[2,3-d]pyrimidin-4-yl]phenyl]-2,3-dihydro-1,4-benzoxazepin-5-one] | 175 | 21
2 | CN1CCOC(c2ccc(-c3cc4c(-c5cccc(N6CCOc7cc(C8CC8)ccc7C6=O)c5CO)ccnc4[nH]3)cc2)C1 (stereo not drawn) [Example C-5, 8-cyclopropyl-4-[2-(hydroxymethyl)-3-[2-[4-(4-methylmorpholin-2-yl)phenyl]-1H-pyrrolo[2,3-b]pyridin-4-yl]phenyl]-2,3-dihydro-1,4-benzoxazepin-5-one] | 125 | 3
3 | CN1CCC(n2cc(-c3cc4c(-c5cccc(N6CCOc7cc(C8CC8)ccc7C6=O)c5CO)ncnc4[nH]3)cn2)CC1 [Example D-1, 8-cyclopropyl-4-[2-(hydroxymethyl)-3-[6-[1-(1-methyl-4-piperidyl)pyrazol-4-yl]-7H-pyrrolo[2,3-d]pyrimidin-4-yl]phenyl]-2,3-dihydro-1,4-benzoxazepin-5-one] | 32 | 6
4 | CN1CCC(n2cc(-c3cc4c(-c5cccc(-n6ccc7cc(C8CC8)ccc7c6=O)c5CO)ncnc4[nH]3)cn2)CC1 [Example D-3, 6-cyclopropyl-2-[2-(hydroxymethyl)-3-[6-[1-(1-methyl-4-piperidyl)pyrazol-4-yl]-7H-pyrrolo[2,3-d]pyrimidin-4-yl]phenyl]isoquinolin-1-one] | 43 | 5
5 | CN1CCC(c2ccc(-c3cc4c(-c5cccc(-n6ccc7cc(C8CC8)ccc7c6=O)c5CO)ncnc4[nH]3)cc2)CC1 [Example D-4, 6-cyclopropyl-2-[2-(hydroxymethyl)-3-[6-[4-(1-methyl-4-piperidyl)phenyl]-7H-pyrrolo[2,3-d]pyrimidin-4-yl]phenyl]isoquinolin-1-one] | 19 | 3
6 | CN1CCC(n2cc(-c3cc4c(-c5cccc(N6CCOc7cc(C8CC8)ccc7C6=O)c5CO)ccnc4[nH]3)cn2)CC1 [Example D-5, 8-cyclopropyl-4-[2-(hydroxymethyl)-3-[2-[1-(1-methyl-4-piperidyl)pyrazol-4-yl]-1H-pyrrolo[2,3-b]pyridin-4-yl]phenyl]-2,3-dihydro-1,4-benzoxazepin-5-one] | 38 | 5
7 | CN1CCCC(n2cc(-c3cc4c(-c5cccc(N6CCOc7cc(C8CC8)ccc7C6=O)c5CO)ncnc4[nH]3)cn2)C1 [Example D-6, 8-cyclopropyl-4-[2-(hydroxymethyl)-3-[6-[1-(1-methyl-3-piperidyl)pyrazol-4-yl]-7H-pyrrolo[2,3-d]pyrimidin-4-yl]phenyl]-2,3-dihydro-1,4-benzoxazepin-5-one] | 53 | 5
8 | CN1CC(n2cc(-c3cc4c(-c5cccc(N6CCOc7cc(C8CC8)ccc7C6=O)c5CO)ccnc4[nH]3)cn2)C1 [Example D-7, 8-cyclopropyl-4-[2-(hydroxymethyl)-3-[2-[1-(1-methylazetidin-3-yl)pyrazol-4-yl]-1H-pyrrolo[2,3-b]pyridin-4-yl]phenyl]-2,3-dihydro-1,4-benzoxazepin-5-one] | 43 | 4
9 | CC(C)N1CC(n2cc(-c3cc4c(-c5cccc(N6CCOc7cc(C8CC8)ccc7C6=O)c5CO)ccnc4[nH]3)cn2)C1 [Example D-8, 8-cyclopropyl-4-[2-(hydroxymethyl)-3-[2-[1-(1-isopropylazetidin-3-yl)pyrazol-4-yl]-1H-pyrrolo[2,3-b]pyridin-4-yl]phenyl]-2,3-dihydro-1,4-benzoxazepin-5-one] | 97 | 6.5
10 | CN1CCC(n2cc(-c3cc4c(-c5cccc(-n6ncc7cc(C8CC8)ccc7c6=O)c5CO)ncnc4[nH]3)cn2)CC1 [Example D-9] | 33 | 2
11 | CN1CCN(c2ccc(-c3cc4c(-c5cccc(N6CCOc7cc(C8CC8)ccc7C6=O)c5CO)ccnc4[nH]3)cn2)CC1 [Example D-11, 8-cyclopropyl-4-[2-(hydroxymethyl)-3-[2-[6-(4-methylpiperazin-1-yl)-3-pyridyl]-1H-pyrrolo[2,3-b]pyridin-4-yl]phenyl]-2,3-dihydro-1,4-benzoxazepin-5-one] | 80 | 14
12 | CC(C)N1CC(Oc2ccc(-c3cc4c(-c5cccc(N6CCOc7cc(C8CC8)ccc7C6=O)c5CO)ccnc4[nH]3)cn2)C1 [Example D-12, 8-cyclopropyl-4-[2-(hydroxymethyl)-3-[2-[6-(1-isopropylazetidin-3-yl)oxy-3-pyridyl]-1H-pyrrolo[2,3-b]pyridin-4-yl]phenyl]-2,3-dihydro-1,4-benzoxazepin-5-one] | 261 | 11
13 | CCN1CCC(n2cc(-c3cc4c(-c5cccc(-n6ncc7cc(C8CC8)ccc7c6=O)c5CO)ncnc4[nH]3)cn2)CC1 [Example D-13, 6-cyclopropyl-2-[3-[6-[1-(1-ethyl-4-piperidyl)pyrazol-4-yl]-7H-pyrrolo[2,3-d]pyrimidin-4-yl]-2-(hydroxymethyl)phenyl]phthalazin-1-one] | 65 | 3
14 | O=C1c2c(F)cc(C3CC3)cc2OCCN1c1cccc(-c2ccnc3[nH]c(-c4cnn(C5CCN(C6COC6)CC5)c4)cc23)c1CO [Example D-14, 8-cyclopropyl-6-fluoro-4-[2-(hydroxymethyl)-3-[2-[1-[1-(oxetan-3-yl)-4-piperidyl]pyrazol-4-yl]-1H-pyrrolo[2,3-b]pyridin-4-yl]phenyl]-2,3-dihydro-1,4-benzoxazepin-5-one] | 8 | 1.7
15 | O=C1c2ccc(C3CC3)cc2OCCN1c1cccc(-c2ccnc3[nH]c(-c4cnn(C5COC5)c4)cc23)c1CO [Example F-1, 8-cyclopropyl-4-[2-(hydroxymethyl)-3-[2-[1-(oxetan-3-yl)pyrazol-4-yl]-1H-pyrrolo[2,3-b]pyridin-4-yl]phenyl]-2,3-dihydro-1,4-benzoxazepin-5-one] | 70 | 3
16 | CC1(O)CCC(n2cc(-c3cc4c(-c5cccc(N6CCOc7cc(C8CC8)ccc7C6=O)c5CO)ccnc4[nH]3)cn2)CC1 (stereo not drawn) [Example F-3, 8-cyclopropyl-4-[2-(hydroxymethyl)-3-[2-[1-(4-hydroxy-4-methyl-cyclohexyl)pyrazol-4-yl]-1H-pyrrolo[2,3-b]pyridin-4-yl]phenyl]-2,3-dihydro-1,4-benzoxazepin-5-one] | 92 | 3.8
17 | CN1CCC(Oc2ccc(-c3cc4c(-c5cccc(N6CCOc7cc(C8CC8)ccc7C6=O)c5CO)ncnc4[nH]3)cc2)CC1 [Example G-1, 8-cyclopropyl-4-[2-(hydroxymethyl)-3-[6-[4-[(1-methyl-4-piperidyl)oxy]phenyl]-7H-pyrrolo[2,3-d]pyrimidin-4-yl]phenyl]-2,3-dihydro-1,4-benzoxazepin-5-one] | 51 | 3
18 | CN1CC(Oc2ccc(-c3cc4c(-c5cccc(N6CCOc7cc(C8CC8)ccc7C6=O)c5CO)ncnc4[nH]3)cc2)C1 [Example G-2, 8-cyclopropyl-4-[2-(hydroxymethyl)-3-[6-[4-(1-methylazetidin-3-yl)oxyphenyl]-7H-pyrrolo[2,3-d]pyrimidin-4-yl]phenyl]-2,3-dihydro-1,4-benzoxazepin-5-one] | 54 | 5

Reference: patent US9233983B2, “Substituted hetero-bicyclic compounds, compositions and medicinal applications thereof” (ADVINUS THERAPEUTICS LIMITED, priority 2012, dated 2016)
